Here are results for two compounds from paper PMC4037345 (ChemMedChem, 2014).

One data set has as its target Albumin (Homo sapiens, UniProt P02768). Particulars: parent drugs; cited from earlier work.
The subject of the next data set is SKOV3. Nature of the data set: Resazurin-based viability assay, 48 hr treatment, SKOV3. The class given is cell-based, human. Particulars: read-out: SKOV3 IC50.
The subject of the next data set is OVCA429. Nature of the data set: Resazurin-based viability assay, 48 hr treatment, OVCA429. The class given is cell-based, human. To be noted: read-out: OVCA429 IC50. Background: Resazurin is reduced to fluorescent resorufin, in cell work by metabolically active cells.
The conditions of data set [1]: parent drugs; cited from earlier work.
For data set [2] the following is noted: cited from earlier work.

For orientation: IC50 means the point on the concentration scale where inhibition reaches its midpoint.

Sequence of Albumin (P02768 25-609, species assumed): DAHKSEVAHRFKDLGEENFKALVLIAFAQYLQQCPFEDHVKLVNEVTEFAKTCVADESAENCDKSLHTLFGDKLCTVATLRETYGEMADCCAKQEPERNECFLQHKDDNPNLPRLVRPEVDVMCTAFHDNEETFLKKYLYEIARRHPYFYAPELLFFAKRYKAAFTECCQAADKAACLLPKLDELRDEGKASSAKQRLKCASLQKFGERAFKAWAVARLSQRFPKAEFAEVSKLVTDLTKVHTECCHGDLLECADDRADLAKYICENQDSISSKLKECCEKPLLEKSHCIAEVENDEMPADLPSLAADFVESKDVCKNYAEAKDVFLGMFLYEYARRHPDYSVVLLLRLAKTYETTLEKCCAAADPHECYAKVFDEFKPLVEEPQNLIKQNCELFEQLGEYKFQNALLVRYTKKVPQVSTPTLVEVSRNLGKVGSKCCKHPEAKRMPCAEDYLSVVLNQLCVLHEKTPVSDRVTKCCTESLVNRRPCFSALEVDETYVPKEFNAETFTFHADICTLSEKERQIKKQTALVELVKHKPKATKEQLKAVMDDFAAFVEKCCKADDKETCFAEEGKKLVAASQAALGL

In the case of `N.N.O=C([O-])C1(C(=O)[O-])CCC1.[Pt+2]` [Carboplatin, carboplatin], on Albumin, the “% Albumin Binding” value was 40[29] %. In addition, the half-maximal inhibitory concentration (IC50) with SKOV3 was determined as 100 ± 6 µM; in the data set on OVCA429, 210 ± 6 µM. Moreover, the logP in data set [1] was -2.3[30]. In data set [2], the “t1/2 initial (initial plasma half-life)” value is 5[32-33] min.
Regarding `N.N.[Cl][Pt][Cl]` [Cisplatin, cisplatin], the concentration for half-maximal inhibition (IC50) with SKOV3 amounted to 3 ± 0.3 µM; in the data set on OVCA429, 15 ± 1 µM.
